Data: patent EP0652004B1, “Methods for treating resistant neoplasms” (ELI LILLY AND COMPANY, priority 1993, dated 1995)
≈ marks a conversion by molar mass, not a printed value. Read-outs that look alike come from different tables or passages of the source.

Columns and labels:
[1] = test system: HL60/ADR; assay: reversal of drug resistance to Adriamycin, in vitro cytotoxicity assay (3H-leucine incorporation); type: cell-based, human; conditions: change in IC50 of Adriamycin; test compound at maximum noncytotoxic concentration (Conc. µM: 12, 6, 3, 4)
Source text: (§1) The cells used to analyze the reversal of drug resistance are the human leukemia cell lines HL60/s, HL60/Vinc, and HL60/ADR. HL60/s cells are not selected for drug resistance and are therefore sensitive to drug treatment (McGrath, et al., "Mechanisms of Multidrug Resistance in HL60 Cells. Analysis of Resistance Associated Membrane Proteins and Levels of MDR Gene Expression, Biochemical Pharmacology, 38: 3611-3619, 1989.). HL60/Vinc tumor cells are selected for resistance to vincristine and express a high level of the multidrug resistance-related protein, P-glycoProtein. Id. HL60/ADR cells are selected for resistance to Adriamycin but contain no detectable levels of P-glycoProtein. Id.
(§2) The in vitro cytotoxicity assays are performed by suspending the target cells into Minimum Essential Eagle's Medium (MEM) containing 25% of the normal leucine concentration and 10% dialyzed fetal calf serum. 2x10^4 cells are seeded into each well of 96 well microtiter plates and are incubated overnight in 5% CO2 at 37°C. The agents to be tested for reversal activity are serially diluted (100 µM, 50 µM, ..., 0.2 µM) in media and added to the cells. 48 hours after adding the reversal agents to the target cells, 4 µCi of ^3H-leucine are added to each well and are incubated for an additional 16 hours at 37°C. The cells are harvested and the amount of ^3H-leucine incorporation is determined. The concentration of reversal agent required for 50% inhibition of ^3H-leucine incorporation (IC50) is calculated. Subsequent studies using reversal agents in the presence of cytotoxic drug (i.e., Adriamycin) utilize maximal concentrations of reversal agents that are not cytotoxic by themselves. The reversal of drug resistance by the various test compounds is accomplished by adding the maximum noncytotoxic concentration of the test compounds to log dilutions of Adriamycin (10, 1, 0.1, ... 0.001 µg/ml) and calculating the change in IC50 observed for Adriamycin against the HL60/s, HL60/Vinc, and HL60/ADR cell lines in the above described in vitro cytotoxicity assay.

[2] = test system: HL60/Adr cells; assay: cytotoxicity of oncolytic agents against HL60/Adr cells; type: cell-based; conditions: Homo sapiens
Protocol: as §2

[3] = test system: HL60/S cells; assay: cytotoxicity of oncolytic agents against HL60/S cells; type: cell-based; conditions: Homo sapiens, HL-60; HL60/S cells (drug sensitive, no P-glycoProtein)
Protocol: as §2

[4] = test system: HL60/VINC; assay: reversal of drug resistance to Adriamycin, in vitro cytotoxicity assay (3H-leucine incorporation); type: cell-based, human; conditions: change in IC50 of Adriamycin; test compound at maximum noncytotoxic concentration (Conc. µM column: 12, 4)
Source text: as §1, §2

Compound | Reversal Factor HL60/ADR [1] | IC50 [3] [µg/mL] | other results
C[C@]12CC[C@@H]3c4ccc(O)cc4CC[C@H]3[C@@H]1CC[C@@H]2O [17∝ Estradiol] | 1 |  | 
COc1cccc2c1C(=O)c1c(O)c3c(c(O)c1C2=O)C[C@@](O)(C(=O)CO)C[C@@H]3O[C@H]1C[C@H](N)[C@H](O)[C@H](C)O1 [Adriamycin, Doxorubicin] |  | 0.011 (≈ 0.0202 µM) | IC50 ([2]; HL60/ADR): 2.2 µg/mL (≈ 4.05 µM)
COc1cc([C@@H]2c3cc4c(cc3[C@@H](O[C@@H]3O[C@@H]5CO[C@@H](C)O[C@H]5[C@H](O)[C@H]3O)[C@H]3COC(=O)[C@H]23)OCO4)cc(OC)c1O [Etoposide] |  | 0.39 (≈ 0.663 µM) | IC50 ([2]; HL60/Adr cells (resistant to doxorubicin, express P190), read-out: IC50): > 10 µg/mL
Cl.O=C(c1ccc(OCCN2CCCCC2)cc1)c1c(-c2ccc(O)cc2)sc2cc(O)ccc12 [Raloxifene HCL, raloxifene] | 7.1 |  | 
CC/C(=C(\c1ccccc1)c1ccc(OCCN(C)C)cc1)c1ccccc1 [Tamoxifen] | 1.4 |  | Reversal Factor HL60/VINC [4]: 4.6
